This passage reports GI50 and TGI results from PubChem BioAssay (NCI).

Among the test systems are BT-549 breast; HCC-2998 colon; HOP-62 NSCLC; HOP-92 NSCLC; MALME-3M melanoma; MCF7 breast; MOLT-4 leukemia; OVCAR-3 ovarian; PC-3 prostate; UACC-257 melanoma.
Common to all, as to assay: growth of human tumour cells (NCI), 48 h

Values joined by “and” are separate entries in the source; they are usually repeats but may differ in a detail not shown here. Equal entries are not always repeated.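 Results reflect a 48-hour exposure of cells in 96-well plates to compound at five concentrations. GI50 is the concentration that inhibits growth by half. TGI: total growth inhibition.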 Bounds are passed on as bounds.

As to `C=C(C)[C@@H]1CC[C@]2(COC3CCCCO3)CC[C@]3(C)[C@H](CC[C@@H]4[C@@]5(C)C=C(C=O)C(=O)C(C)(C)[C@@H]5CC[C@]43C)[C@@H]12` (stereo not given in full), the GI50 in the assay with BT-549 breast is 1.42 µM; in the assay with HCC-2998 colon, 2.04 µM; in the assay with HOP-62 NSCLC, 1.75 µM; in the assay on HOP-92 NSCLC, 1.49 µM; in the assay with MALME-3M melanoma, 1.66 µM; in the assay on MCF7 breast it was 1.52 µM. Besides, the GI50 was 1.03 µM in the assay on MOLT-4 leukemia, 1.14 µM in the assay on OVCAR-3 ovarian, 1.1 µM in the assay with PC-3 prostate and 2.06 µM in the assay with UACC-257 melanoma. Also, the TGI with BT-549 breast stood at 2.78 µM; with HCC-2998 colon, 4.2 µM; with HOP-62 NSCLC, 3.19 µM; with HOP-92 NSCLC, 2.89 µM; with MALME-3M melanoma it was 3.45 µM; in the assay on MCF7 breast, 3.43 µM. For the same compound, the TGI is 29.9 µM with MOLT-4 leukemia, 2.49 µM in the assay on OVCAR-3 ovarian, 2.71 µM in the assay on PC-3 prostate and 4.22 µM in the assay with UACC-257 melanoma.

As to `CCN1C(=O)N(c2ccccc2)C2NN=c3s/c(=C4\C(=O)N(C(C)C)c5ccccc54)c(=O)n3C21` (stereo not given), the GI50 in the assay with BT-549 breast was 1.8 µM; with HCC-2998 colon, 3.5 µM; in the assay with HOP-62 NSCLC, 0.689 µM; in the assay with HOP-92 NSCLC, 1.44 µM; in the assay with MALME-3M melanoma, 1.57 µM; in the assay with MCF7 breast, 0.483 µM. In addition, the GI50 with MOLT-4 leukemia is 1.58 µM; in the assay on OVCAR-3 ovarian, 0.886 µM; in the assay on PC-3 prostate, 1.45 µM; in the assay on UACC-257 melanoma, above 51.8 µM. Moreover, the TGI was 18.9 µM with BT-549 breast; 61.8 µM in the assay on HCC-2998 colon; 18.9 µM with HOP-62 NSCLC; above 43.5 µM with HOP-92 NSCLC; above 100 µM in the assay with MALME-3M melanoma; above 100 µM in the assay with MCF7 breast. The TGI with MOLT-4 leukemia was above 100 µM; in the assay on OVCAR-3 ovarian it was 3.1 µM; in the assay on PC-3 prostate it was above 77.3 µM; in the assay on UACC-257 melanoma, above 100 µM.

Regarding `Cc1ccc(S(=O)(=O)Cc2nc(-c3ccc(C(=O)NCc4cccnc4)cc3)oc2C)cc1`, the GI50 is 3.37 µM in the assay with BT-549 breast; 18.4 µM in the assay with HCC-2998 colon; 15.4 µM with HOP-62 NSCLC; 13 µM in the assay on HOP-92 NSCLC; 27.5 µM in the assay with MALME-3M melanoma; 3.93 µM in the assay with MCF7 breast. The GI50 with MOLT-4 leukemia was 0.595 µM; with OVCAR-3 ovarian, 8.1 µM; in the assay on PC-3 prostate, 0.224 µM; in the assay on UACC-257 melanoma, above 100 µM. The TGI is above 100 µM in the assay on BT-549 breast; above 100 µM in the assay on HCC-2998 colon; above 88.8 µM with HOP-62 NSCLC; above 100 µM in the assay with HOP-92 NSCLC; above 100 µM with MALME-3M melanoma; above 100 µM in the assay with MCF7 breast. The TGI with MOLT-4 leukemia, in the assay on OVCAR-3 ovarian, in the assay with PC-3 prostate and with UACC-257 melanoma was above 100 µM each time.

For the compound `CS(=O)(=O)CCNCc1ccc(-c2ccc3ncnc(Nc4ccc(OCc5ccccc5)c(Cl)c4)c3c2)o1`, the GI50 with BT-549 breast is 6.9 µM; in the assay on HCC-2998 colon it was 4.27 µM; in the assay with HOP-62 NSCLC it was 6.83 µM; with HOP-92 NSCLC, 3.06 µM; with MALME-3M melanoma, 5.18 µM; with MCF7 breast, 5.06 µM. Also, the GI50 is 6.05 µM in the assay with MOLT-4 leukemia, 6.54 µM with OVCAR-3 ovarian, 7.41 µM in the assay with PC-3 prostate and 3.92 µM in the assay with UACC-257 melanoma. The TGI with BT-549 breast is above 25 µM; in the assay on HCC-2998 colon, 8.37 µM; in the assay with HOP-62 NSCLC, above 20.3 µM; in the assay on HOP-92 NSCLC, 11.3 µM; in the assay with MALME-3M melanoma, 10.4 µM; in the assay with MCF7 breast, above 13.8 µM. Besides, the TGI is above 25 µM in the assay with MOLT-4 leukemia, above 25 µM in the assay with OVCAR-3 ovarian, 24.2 µM in the assay with PC-3 prostate and 7.74 µM in the assay with UACC-257 melanoma.

For `O=C(NCCCCCCCCNC(=O)c1cccc2ccccc12)c1cccc2ccccc12`, the TGI in the assay on BT-549 breast is above 100 µM; in the assay on HCC-2998 colon, above 100 µM; in the assay with HOP-62 NSCLC, 13.5 µM; in the assay with HOP-92 NSCLC, 20.4 µM; with MALME-3M melanoma, above 100 µM; in the assay with MCF7 breast, above 100 µM. The TGI with MOLT-4 leukemia is above 100 µM; with OVCAR-3 ovarian, above 79.9 µM; in the assay on PC-3 prostate, above 100 µM; in the assay on UACC-257 melanoma, above 100 µM.

Turning to `Cc1c(NC(=O)OC[C@@H]2COCCN2)cn2ncnc(Nc3ccc4c(cnn4Cc4cccc(F)c4)c3)c12`, the GI50 with BT-549 breast is > 10 µM and 8.52 µM; in the assay on HCC-2998 colon, > 10 µM and 12 µM; in the assay on HOP-62 NSCLC it was > 10 µM and 11.5 µM; with HOP-92 NSCLC, 1.45 µM and 0.991 µM; in the assay on MALME-3M melanoma, > 10 µM and 10.5 µM; in the assay with MCF7 breast, > 10 µM and 12.1 µM. Further, the GI50 with MOLT-4 leukemia is 7.63 µM and 7.76 µM; with OVCAR-3 ovarian, > 10 µM and 6.66 µM; in the assay with PC-3 prostate, > 10 µM and 10.2 µM; in the assay on UACC-257 melanoma, > 10 µM and 5.34 µM. Besides, the TGI in the assay with BT-549 breast was > 10 µM and 22.7 µM; with HCC-2998 colon, > 10 µM and 25 µM; in the assay on HOP-62 NSCLC, > 10 µM and 24.9 µM; in the assay on HOP-92 NSCLC, > 10 µM and 10.7 µM; in the assay on MALME-3M melanoma, > 10 µM and 31.2 µM; with MCF7 breast, > 10 µM and 33.6 µM. In addition, the TGI in the assay with MOLT-4 leukemia was > 10 µM and 24.1 µM; in the assay on OVCAR-3 ovarian, > 10 µM and 21.5 µM; in the assay with PC-3 prostate, > 10 µM and 31.8 µM; in the assay with UACC-257 melanoma it was > 10 µM and 18.2 µM.

Take `CN(C[C@@H]1COCCO1)S(=O)(=O)Nc1ccc2ccc3ncc(-c4cnn(C)c4)cc3c(=O)c2c1`: the GI50 in the assay with BT-549 breast is 2.01 µM; in the assay on HCC-2998 colon, 59.6 µM; in the assay with HOP-62 NSCLC, 10.9 µM; in the assay on HOP-92 NSCLC it was 2.25 µM; with MALME-3M melanoma, 5.43 µM; in the assay on MCF7 breast, 12.8 µM. Further, the GI50 with MOLT-4 leukemia is 4.08 µM; in the assay with OVCAR-3 ovarian it was 11.8 µM; in the assay with PC-3 prostate, 5.67 µM; in the assay with UACC-257 melanoma it was above 100 µM. In addition, the TGI in the assay on BT-549 breast was above 100 µM; in the assay on HCC-2998 colon, above 100 µM; in the assay with HOP-62 NSCLC, above 100 µM; with HOP-92 NSCLC, above 30.3 µM; in the assay on MALME-3M melanoma it was above 100 µM; with MCF7 breast it was above 100 µM. Besides, the TGI in the assay on MOLT-4 leukemia was above 91.3 µM; in the assay on OVCAR-3 ovarian it was above 100 µM; with PC-3 prostate, above 100 µM; in the assay with UACC-257 melanoma it was above 100 µM.

Regarding `CCc1nc(N)nc(N)c1-c1ccc(NCCc2ccccc2)c([N+](=O)[O-])c1`, the TGI was 42.9 µM with BT-549 breast; 11.3 µM with HCC-2998 colon; above 46.9 µM in the assay with HOP-62 NSCLC; 35.7 µM in the assay on HOP-92 NSCLC; 9.74 µM with MALME-3M melanoma; 33.6 µM with MCF7 breast. Besides, the TGI in the assay on MOLT-4 leukemia is 33.3 µM; in the assay on OVCAR-3 ovarian, 32.2 µM; with PC-3 prostate it was above 71.6 µM; in the assay with UACC-257 melanoma, 26.2 µM.
